Earlier results as cited in PMC8583936, “Machine Learning Assisted Approach for Finding Novel High Activity Agonists of Human Ectopic Olfactory Receptors” (International Journal of Molecular Sciences, 2021).
Where two headings read alike, the source gives them in different places.

Legend:
OR1A1 = target: T1, OR1A1 (Homo sapiens, UniProt Q9P1Q5); details: cited from earlier work
T1 sequence (Q9P1Q5 1-309): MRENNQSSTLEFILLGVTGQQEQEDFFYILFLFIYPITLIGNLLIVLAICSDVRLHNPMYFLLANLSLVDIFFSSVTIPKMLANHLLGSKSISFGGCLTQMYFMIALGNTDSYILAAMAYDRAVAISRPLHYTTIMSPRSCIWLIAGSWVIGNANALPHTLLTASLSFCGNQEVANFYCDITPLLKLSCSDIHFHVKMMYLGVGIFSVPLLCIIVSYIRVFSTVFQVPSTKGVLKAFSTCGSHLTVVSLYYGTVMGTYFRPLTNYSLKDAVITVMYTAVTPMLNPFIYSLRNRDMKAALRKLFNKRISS

OR2W1 = target: T2, OR2W1 (Homo sapiens, UniProt Q9Y3N9); details: cited from earlier work
T2 sequence (Q9Y3N9 1-320): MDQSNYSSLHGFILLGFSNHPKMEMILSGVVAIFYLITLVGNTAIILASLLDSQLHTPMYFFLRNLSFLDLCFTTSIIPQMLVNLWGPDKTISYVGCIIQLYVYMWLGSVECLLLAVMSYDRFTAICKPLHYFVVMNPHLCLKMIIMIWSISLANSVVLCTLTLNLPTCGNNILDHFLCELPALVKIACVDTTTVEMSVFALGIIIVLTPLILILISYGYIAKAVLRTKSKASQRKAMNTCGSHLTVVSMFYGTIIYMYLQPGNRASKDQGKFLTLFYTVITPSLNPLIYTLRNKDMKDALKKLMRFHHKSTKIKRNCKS

[1] = Table S1, ref Supplement references [1]-[9] as printed after each odorant name
[2] = Table S2, ref Supplement references [2]-[12] as printed after each odorant name

SMILES | Class (agonist / non-agonist / conflicting info.) for OR1A1 (OR1A1; [1]) | Class (agonist / non-agonist / antagonist / conflicting info.) for OR2W1 (OR2W1; [2]) | Class (agonist / non-agonist / conflicting info.) for OR1A1 (OR1A1) | Class (agonist / non-agonist / antagonist / conflicting info.) for OR2W1 (OR2W1)
CC(=O)C1=NCCS1 [2-Acetyl-2-thiazoline] | Non-agonist | Non-agonist |  | 
CC(=O)c1ccco1 [2-Furyl methyl ketone] | Non-agonist | Non-agonist |  | 
CCc1ccc(O)c(OC)c1 [2-Methoxy-4-ethylphenol] | Non-agonist | Non-agonist |  | 
COc1ccc(C)cc1O [2-Methoxy-5-methylphenol] | Non-agonist | Non-agonist |  | 
Cc1occc1S [2-Methyl-3-furanthiol] | Non-agonist | Non-agonist |  | 
CCC(S)C(C)CO (centres unmarked) [2-Methyl-3-sulfanylpentan-1-ol] | Non-agonist | Non-agonist |  | 
CCC(C)COC(C)=O (centres unmarked) [2-Methylbutyl acetate] | Non-agonist | Non-agonist |  | 
O=C(O)Cc1ccccc1 [2-Phenylacetic acid] |  |  | Non-agonist | Non-agonist
CC(=O)OCCc1ccccc1 [2-Phenylethyl acetate] | Agonist | Agonist |  | 
CCC(=O)C(C)S (centres unmarked) [2-Sulfanylpentan-3-one] | Non-agonist | Non-agonist |  | 
CC(=O)c1cnccn1 [2-acetylpyrazine] | Non-agonist | Non-agonist |  | 
CCC(C)=O [2-butanone] |  |  | Non-agonist | Non-agonist
O=C1Cc2ccccc2O1 [2-coumaranone] | Non-agonist | Non-agonist |  | 
CCCCCCC/C=C/C=O [2-decenal, (2e)-] | Non-agonist | Non-agonist |  | 
CCCCCC/C=C/C=O [2-enonenal] | Non-agonist | Non-agonist |  | 
CCOc1nccs1 [2-ethoxythiazole] | Non-agonist | Agonist |  | 
CCC1(O)C2(C)CCC(C2)C1(C)C (centres unmarked) [2-ethylfenchol] | Conflicting info. |  |  | Conflicting info.
CCCCCC(C)O (centres unmarked) [2-heptanol] | Non-agonist | Agonist |  | 
CCCCCC(C)=O [2-heptanone] | Conflicting info. | Conflicting info. |  | 
CCCCC(C)=O [2-hexanone] |  |  | Non-agonist | Agonist
CCC/C=C/C=O [2-hexenal, (2e)-] | Non-agonist | Non-agonist |  | 
COc1nccnc1CC(C)C [2-isobutyl-3-methoxypyrazine] | Non-agonist | Non-agonist |  | 
COc1nccnc1C(C)C [2-isopropyl-3-methoxypyrazine] | Non-agonist | Non-agonist |  | 
CCCCCCCCCC(=O)O [Decanoic acid] |  | Agonist |  | 
CCCCCCCS [Heptane-1-thiol] |  | Agonist |  | 
CCCCCCS [Hexane-1-thiol] |  |  |  | Agonist
CCCCCS [Pentane-1-thiol] |  | Agonist |  | 
